Results reported in ChEMBL document CHEMBL1909046, “DrugMatrix in vitro pharmacology data”.
pIC50, pKi: −log10 of the molar value.

Columns and labels:
Cytochrome P450 1A2 = molecular target: T1, Cytochrome P450 1A2 (Homo sapiens, UniProt P05177); details: bti-tn-5b1-4; further: in other assays of this panel Not Active means under 50% inhibition at 10 µM
T1 sequence (P05177 whole entry): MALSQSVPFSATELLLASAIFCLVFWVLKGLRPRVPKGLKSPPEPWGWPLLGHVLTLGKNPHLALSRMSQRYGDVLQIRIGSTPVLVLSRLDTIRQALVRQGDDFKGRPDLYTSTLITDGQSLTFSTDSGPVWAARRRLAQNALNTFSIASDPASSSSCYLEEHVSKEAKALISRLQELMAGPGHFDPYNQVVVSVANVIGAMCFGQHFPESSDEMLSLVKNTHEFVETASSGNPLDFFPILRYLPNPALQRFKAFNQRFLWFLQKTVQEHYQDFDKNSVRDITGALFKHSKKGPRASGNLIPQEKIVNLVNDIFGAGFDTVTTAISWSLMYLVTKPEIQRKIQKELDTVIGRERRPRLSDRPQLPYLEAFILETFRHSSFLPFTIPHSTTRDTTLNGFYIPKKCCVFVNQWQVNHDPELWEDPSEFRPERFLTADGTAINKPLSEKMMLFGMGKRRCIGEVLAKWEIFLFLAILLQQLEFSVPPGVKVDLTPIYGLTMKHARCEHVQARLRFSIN

[1] = molecular target: T2, Neuropeptide Y receptor type 2 (Homo sapiens, UniProt P49146); type: cell membranes, KAN-TS, Membrane; details: kan-ts; further: in other assays of this panel Not Active means under 50% inhibition at 10 µM
T2 sequence (P49146 whole entry): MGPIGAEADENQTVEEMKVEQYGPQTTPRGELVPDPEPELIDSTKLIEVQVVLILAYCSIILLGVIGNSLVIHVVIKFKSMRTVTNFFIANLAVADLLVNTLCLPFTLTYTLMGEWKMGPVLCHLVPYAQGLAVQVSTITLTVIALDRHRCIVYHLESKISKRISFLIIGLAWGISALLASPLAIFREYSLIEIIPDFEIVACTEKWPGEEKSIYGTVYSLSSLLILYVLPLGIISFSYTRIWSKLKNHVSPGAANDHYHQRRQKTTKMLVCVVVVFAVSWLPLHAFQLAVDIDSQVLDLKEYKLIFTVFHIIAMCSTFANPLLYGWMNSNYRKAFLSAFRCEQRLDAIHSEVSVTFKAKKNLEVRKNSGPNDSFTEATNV

[2] = molecular target: T3, C-C chemokine receptor type 4 (Homo sapiens, UniProt P51679); type: cell membranes, Membrane; details: chem-1; further: in other assays of this panel Not Active means under 50% inhibition at 10 µM
T3 sequence (P51679 whole entry): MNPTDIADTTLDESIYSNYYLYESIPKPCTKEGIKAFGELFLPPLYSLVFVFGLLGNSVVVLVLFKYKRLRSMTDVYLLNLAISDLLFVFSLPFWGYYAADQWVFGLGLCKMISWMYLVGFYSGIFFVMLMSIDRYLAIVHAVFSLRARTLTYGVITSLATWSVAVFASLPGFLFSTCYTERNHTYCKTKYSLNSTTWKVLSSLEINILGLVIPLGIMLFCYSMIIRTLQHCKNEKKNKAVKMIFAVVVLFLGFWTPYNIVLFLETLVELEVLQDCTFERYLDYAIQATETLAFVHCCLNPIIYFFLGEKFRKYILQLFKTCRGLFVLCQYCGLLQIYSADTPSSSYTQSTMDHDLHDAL

[3] = molecular target: T4, 5-hydroxytryptamine receptor 1A (Rattus norvegicus, UniProt P19327); type: cell membranes, CHO-K1, Membrane; details: for pIC50: read-out: IC50; for pKi: read-out: Ki; for IC50: cho-k1; on all read-outs here: in other assays of this panel Not Active means under 50% inhibition at 10 µM
T4 sequence (P19327 whole entry): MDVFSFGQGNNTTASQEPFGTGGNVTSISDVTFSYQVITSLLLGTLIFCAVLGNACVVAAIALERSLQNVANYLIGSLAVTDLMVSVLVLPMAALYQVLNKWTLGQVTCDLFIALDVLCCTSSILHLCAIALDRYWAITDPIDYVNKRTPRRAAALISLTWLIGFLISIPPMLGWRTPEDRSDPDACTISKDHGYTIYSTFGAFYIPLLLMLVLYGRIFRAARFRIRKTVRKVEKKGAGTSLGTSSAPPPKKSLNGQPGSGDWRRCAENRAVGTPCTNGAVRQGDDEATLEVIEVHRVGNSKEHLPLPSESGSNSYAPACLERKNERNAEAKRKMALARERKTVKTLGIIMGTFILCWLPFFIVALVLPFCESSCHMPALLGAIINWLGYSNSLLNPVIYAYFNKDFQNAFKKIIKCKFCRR

[4] = DRUGMATRIX: ATPase, Na+/K+ enzyme inhibition (substrate: ATP); type: tissue-based, Sus scrofa, Heart; details: Not Active = under 50% inhibition at 10 µM
[5] = molecular target: C-C chemokine receptor type 5 (Homo sapiens, UniProt P51681); type: cell membranes, Membrane; details: hek293; further: in other assays of this panel Not Active means under 50% inhibition at 10 µM
[6] = molecular target: T5, Amine oxidase [flavin-containing] A (Homo sapiens, UniProt P21397); experiment: DRUGMATRIX: Monoamine Oxidase MAO-A enzyme inhibition (substrate: Kynuramine); parameters: species or system BTI-TN-5B1-4; details: bti-tn-5b1-4; Not Active = under 50% inhibition at 10 µM
T5 sequence (P21397 whole entry): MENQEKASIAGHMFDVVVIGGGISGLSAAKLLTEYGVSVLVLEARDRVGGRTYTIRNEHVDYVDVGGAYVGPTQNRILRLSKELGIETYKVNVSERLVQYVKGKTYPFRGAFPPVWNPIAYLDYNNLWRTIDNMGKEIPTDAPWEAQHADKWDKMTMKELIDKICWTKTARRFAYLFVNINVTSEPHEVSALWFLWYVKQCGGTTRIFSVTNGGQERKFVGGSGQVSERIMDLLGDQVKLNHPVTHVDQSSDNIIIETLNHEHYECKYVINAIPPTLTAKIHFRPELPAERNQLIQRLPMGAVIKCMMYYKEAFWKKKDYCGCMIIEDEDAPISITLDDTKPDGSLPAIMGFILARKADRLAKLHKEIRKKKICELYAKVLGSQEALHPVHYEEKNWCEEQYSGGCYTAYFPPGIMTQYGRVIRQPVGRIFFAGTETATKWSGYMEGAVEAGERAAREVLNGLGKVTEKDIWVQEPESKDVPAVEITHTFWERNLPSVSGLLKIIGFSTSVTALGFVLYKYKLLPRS

Sequence of C-C chemokine receptor type 5 (P51681 whole entry): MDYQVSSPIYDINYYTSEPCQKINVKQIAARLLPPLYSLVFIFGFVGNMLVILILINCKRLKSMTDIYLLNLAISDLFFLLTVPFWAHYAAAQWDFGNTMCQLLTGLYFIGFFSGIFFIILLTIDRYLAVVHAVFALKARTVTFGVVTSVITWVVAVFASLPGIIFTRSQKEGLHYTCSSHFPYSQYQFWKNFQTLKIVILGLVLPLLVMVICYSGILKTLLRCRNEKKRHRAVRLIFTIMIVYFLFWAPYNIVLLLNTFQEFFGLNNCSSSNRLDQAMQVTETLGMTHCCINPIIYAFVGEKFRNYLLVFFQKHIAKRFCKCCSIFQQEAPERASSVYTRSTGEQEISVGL

COc1cc(N)c(Cl)cc1C(=O)NC1CCN(CCCOc2ccc(F)cc2)CC1OC (centres undefined) [CISAPRIDE]
5.55: pIC50 [3]
Not Active: IC50 (Cytochrome P450 1A2) | Ki (Cytochrome P450 1A2) | IC50 [1] | IC50 [2] | IC50 [4] | Ki [4] | IC50 [5] | IC50 [6]
5.79: pKi [3]

CCC(=O)O[C@]1(C(=O)CCl)[C@@H](C)C[C@H]2[C@@H]3CCC4=CC(=O)C=C[C@]4(C)[C@@]3(F)[C@@H](O)C[C@@]21C [CLOBETASOL PROPIONATE]
Not Active: IC50 (Cytochrome P450 1A2) | Ki (Cytochrome P450 1A2) | IC50 [1] | IC50 [2] | IC50 [3] | IC50 [4] | Ki [4] | IC50 [5] | IC50 [6]

O=C1CN=C(c2ccccc2Cl)c2cc([N+](=O)[O-])ccc2N1 [CLONAZEPAM]
Not Active: IC50 (Cytochrome P450 1A2) | Ki (Cytochrome P450 1A2) | IC50 [1] | IC50 [2] | IC50 [3] | IC50 [4] | Ki [4] | IC50 [5] | IC50 [6]

Nc1ccn([C@@H]2O[C@H](CO)[C@@H](O)[C@@H]2O)c(=O)n1 [CYTARABINE]
Not Active: IC50 (Cytochrome P450 1A2) | Ki (Cytochrome P450 1A2) | IC50 [1] | IC50 [2] | IC50 [3] | IC50 [4] | Ki [4] | IC50 [5] | IC50 [6]

C[C@@H]1C[C@H]2[C@@H]3CCC4=CC(=O)C=C[C@]4(C)[C@@]3(F)[C@@H](O)C[C@]2(C)[C@H]1C(=O)CO [DESOXIMETASONE]
Not Active: IC50 (Cytochrome P450 1A2) | Ki (Cytochrome P450 1A2) | IC50 [1] | IC50 [2] | IC50 [3] | IC50 [4] | Ki [4] | IC50 [5] | IC50 [6]

C[C@@H]1C[C@H]2[C@@H]3CCC4=CC(=O)C=C[C@]4(C)[C@@]3(F)[C@@H](O)C[C@]2(C)[C@@]1(O)C(=O)CO [DEXAMETHASONE]
Not Active: IC50 (Cytochrome P450 1A2) | Ki (Cytochrome P450 1A2) | IC50 [1] | IC50 [2] | IC50 [3] | IC50 [4] | Ki [4] | IC50 [5] | IC50 [6]

CN(C)CC[C@@H](c1ccc(Cl)cc1)c1ccccn1 [DEXCHLORPHENIRAMINE]
Not Active: IC50 (Cytochrome P450 1A2) | Ki (Cytochrome P450 1A2) | IC50 [1] | IC50 [2] | IC50 [3] | IC50 [4] | Ki [4] | IC50 [5] | IC50 [6]

C[C@@H]1CC[C@@]2(OC1)O[C@H]1[C@@H](O)[C@H]3[C@@H]4CC[C@H]5C[C@@H](O[C@@H]6O[C@H](CO)[C@H](O[C@@H]7O[C@H](CO)C(O)[C@H](O[C@@H]8OC[C@@H](O)[C@H](O)[C@H]8O)[C@H]7O[C@@H]7O[C@H](CO)[C@H](O)[C@H](O[C@@H]8O[C@H](CO)[C@@H](O)[C@H](O)[C@H]8O)[C@H]7O)[C@H](O)[C@H]6O)[C@H](O)C[C@]5(C)[C@H]4CC[C@]3(C)[C@H]1[C@@H]2C (some centres undefined) [DIGITONIN]
Not Active: IC50 (Cytochrome P450 1A2) | Ki (Cytochrome P450 1A2) | IC50 [1] | IC50 [2] | IC50 [3] | IC50 [4] | Ki [4] | IC50 [5] | IC50 [6]

OC(CCCN1CCCCC1)(c1ccccc1)c1ccccc1 [DIPHENIDOL]
Not Active: IC50 (Cytochrome P450 1A2) | Ki (Cytochrome P450 1A2) | IC50 [1] | IC50 [2] | IC50 [3] | IC50 [4] | Ki [4] | IC50 [5] | IC50 [6]

C[C@H]1O[C@@H](n2cc(F)c(=O)[nH]c2=O)[C@H](O)[C@@H]1O [DOXIFLURIDINE]
Not Active: IC50 (Cytochrome P450 1A2) | Ki (Cytochrome P450 1A2) | IC50 [1] | IC50 [2] | IC50 [3] | IC50 [4] | Ki [4] | IC50 [5] | IC50 [6]

Cn1c(=O)c2c(ncn2CC(O)CO)n(C)c1=O (centres undefined) [DYPHYLLINE]
Not Active: IC50 (Cytochrome P450 1A2) | Ki (Cytochrome P450 1A2) | IC50 [1] | IC50 [2] | IC50 [3] | IC50 [4] | Ki [4] | IC50 [5] | IC50 [6]

CC[C@H]1CN2CCc3cc(OC)c(OC)cc3[C@@H]2C[C@@H]1C[C@H]1NCCc2cc(OC)c(OC)cc21 [EMETINE]
Not Active: IC50 (Cytochrome P450 1A2) | Ki (Cytochrome P450 1A2) | IC50 [1] | IC50 [2] | IC50 [3] | IC50 [4] | Ki [4] | IC50 [5] | IC50 [6]

C[C@@H](CO)NC(=O)[C@@H]1C=C2c3cccc4[nH]cc(c34)C[C@H]2N(C)C1 [ERGONOVINE]
8.33: pKi [3]
Not Active: IC50 (Cytochrome P450 1A2) | Ki (Cytochrome P450 1A2) | IC50 [1] | IC50 [2] | IC50 [4] | Ki [4] | IC50 [5] | IC50 [6]
8.09: pIC50 [3]

COC(=O)CCc1ccc(OCC(O)CNC(C)C)cc1 (centres undefined) [ESMOLOL]
Not Active: IC50 (Cytochrome P450 1A2) | Ki (Cytochrome P450 1A2) | IC50 [1] | IC50 [2] | IC50 [3] | IC50 [4] | Ki [4] | IC50 [5] | IC50 [6]

CCC1(C)CC(=O)NC1=O (centres undefined) [ETHOSUXIMIDE]
Not Active: IC50 (Cytochrome P450 1A2) | Ki (Cytochrome P450 1A2) | IC50 [1] | IC50 [2] | IC50 [3] | IC50 [4] | Ki [4] | IC50 [5] | IC50 [6]

C=CCc1ccc(O)c(OC)c1 [EUGENOL]
Not Active: IC50 (Cytochrome P450 1A2) | Ki (Cytochrome P450 1A2) | IC50 [1] | IC50 [2] | IC50 [3] | IC50 [4] | Ki [4] | IC50 [5] | IC50 [6]

CC(C(=O)O)c1cccc(Oc2ccccc2)c1 (centres undefined) [FENOPROFEN]
Not Active: IC50 (Cytochrome P450 1A2) | Ki (Cytochrome P450 1A2) | IC50 [1] | IC50 [2] | IC50 [3] | IC50 [4] | Ki [4] | IC50 [5] | IC50 [6]

CC(C)(C)NC(=O)[C@H]1CC[C@H]2[C@@H]3CC[C@H]4NC(=O)C=C[C@]4(C)[C@H]3CC[C@]12C [FINASTERIDE]
Not Active: IC50 (Cytochrome P450 1A2) | Ki (Cytochrome P450 1A2) | IC50 [1] | IC50 [2] | IC50 [3] | IC50 [4] | Ki [4] | IC50 [5] | IC50 [6]
